Test results taken from patent US12162858B2, “Quinoline derivatives as inhibitors of AXL/MER RTK and CSF1R” (QURIENT CO., LTD., priority 2018, dated 2024).
Like-named read-outs stand apart in the source and are kept apart here.

Molecular target: CSF1R (Homo sapiens, UniProt P07333)
Assay: KINOMEscan competition binding assay for CSF1R
Design: DNA tag for qPCR (not a peptide); host or cells: E. coli/T7 phage or HEK-293
Conditions: for Kd: read-out: CSF1R kinase binding activity (Kd)
Protocol: KINOMEscan™ is based on a competition binding assay that quantitatively measures the ability of a compound to compete with an immobilized, active-site directed ligand. The assay is performed by combining three components: DNA-tagged kinase; immobilized ligand; and a test compound. The ability of the test compound to compete with the immobilized ligand is measured via quantitative PCR of the DNA tag.
E. coli were grown to log-phase and infected with T7 phage and incubated with shaking at 32° C. until lysis. The lysates were centrifuged and filtered to remove cell debris. The remaining kinases were produced in HEK-293 cells and subsequently tagged with DNA for qPCR detection. Streptavidin-coated magnetic beads were treated with biotinylated small molecule ligands for 30 minutes at room temperature to generate affinity resins for kinase assays. The liganded beads were blocked with excess biotin and washed with blocking buffer (SeaBlock (Pierce), 1% BSA, 0.05% Tween 20, 1 mM DTT) to remove unbound ligand and to reduce non-specific binding. Binding reactions were assembled by combining kinases, liganded affinity beads, and test compounds in 1× binding buffer (20% SeaBlock, 0.17×PBS, 0.05% Tween 20, 6 mM DTT). Test compounds were prepared as 111× stocks in 100% DMSO. Kds were determined using an 11-point 3-fold compound dilution series with three DMSO control points. All compounds for Kd measurements are distributed by acoustic transfer (non-contact dispensing) in 100% DMSO. The compounds were then diluted directly into the assays such that the final concentration of DMSO was 0.9%. In case of % inhibition, test compounds were prepared as 40× stocks in 100% DMSO and directly diluted into the assay. All reactions performed in polypropylene 384-well plate. Each was a final volume of 0.02 ml. The assay plates were incubated at room temperature with shaking for 1 hour and the affinity beads were washed with wash buffer (1×PBS, 0.05% Tween 20). The beads were then re-suspended in elution buffer (1×PBS, 0.05% Tween 20, 0.5 μM non-biotinylated affinity ligand) and incubated at room temperature with shaking for 30 minutes. The kinase concentration in the eluates was measured by qPCR.
The CSF1R kinase binding activity results are shown in tables 1 (Kd) and 2 (percent inhibition at a concentration of 0.1 uM of compound to be tested).
Binding constants (Kds) were calculated with a standard dose-response curve using the Hill equation: […]
The Hill Slope was set to −1.
Curves were fitted using a non-linear least square fit with the Levenberg-Marquardt algorithm.
Binding % inhibition were calculated with as below:
[formula] • negative control=DMSO (100% Ctrl) • positive control=control compound (0% Ctrl)

[1] = read-out: CSF1R kinase binding activity, Percent (%) inhibition
[2] = read-out: CSF1R kinase binding activity, Range

CSF1R, sequence (P07333 20-972): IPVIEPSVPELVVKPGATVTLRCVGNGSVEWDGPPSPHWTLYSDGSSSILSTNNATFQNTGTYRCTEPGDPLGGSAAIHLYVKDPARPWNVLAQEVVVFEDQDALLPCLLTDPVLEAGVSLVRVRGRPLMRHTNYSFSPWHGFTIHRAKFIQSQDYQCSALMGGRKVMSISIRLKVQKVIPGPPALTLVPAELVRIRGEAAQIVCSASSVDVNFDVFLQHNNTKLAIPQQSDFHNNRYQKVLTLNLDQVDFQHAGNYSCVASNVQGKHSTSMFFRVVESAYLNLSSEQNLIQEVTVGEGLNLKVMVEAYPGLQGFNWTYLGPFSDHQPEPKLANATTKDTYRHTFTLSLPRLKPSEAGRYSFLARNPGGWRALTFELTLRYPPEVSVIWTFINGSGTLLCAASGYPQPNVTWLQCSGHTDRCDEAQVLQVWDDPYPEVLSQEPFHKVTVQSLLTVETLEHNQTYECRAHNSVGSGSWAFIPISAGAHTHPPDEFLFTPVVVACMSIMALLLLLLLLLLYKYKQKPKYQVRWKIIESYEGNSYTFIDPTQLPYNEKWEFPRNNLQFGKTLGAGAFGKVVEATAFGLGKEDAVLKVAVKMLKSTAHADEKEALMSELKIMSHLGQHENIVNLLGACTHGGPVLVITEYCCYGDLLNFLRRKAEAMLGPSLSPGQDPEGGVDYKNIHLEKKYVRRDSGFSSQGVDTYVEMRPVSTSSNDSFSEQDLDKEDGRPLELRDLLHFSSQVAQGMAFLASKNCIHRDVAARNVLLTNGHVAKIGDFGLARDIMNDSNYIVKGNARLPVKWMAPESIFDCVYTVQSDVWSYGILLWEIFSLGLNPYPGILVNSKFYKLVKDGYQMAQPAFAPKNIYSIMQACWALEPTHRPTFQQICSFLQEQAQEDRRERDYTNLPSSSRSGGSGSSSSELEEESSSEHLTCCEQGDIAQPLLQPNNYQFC

SMILES	inhibition at 0.1 µM [1] [%]	inhibition at 0.1 µM [2] [%]	Kd [nM]
COc1cc2nccc(Oc3ccc(NC(=O)c4nn(CC(C)O)cc4OC(C)C)nc3)c2cc1OC (stereo not drawn) [Compound 151]	97	≥ 80	–
COc1cc2nccc(Oc3ccc(NC(=O)c4nn(C5CCOC5)cc4OCC(F)(F)F)nn3)c2cc1OC (stereo not drawn) [Compound 128]	94	≥ 80	–
COc1cc2nccc(Oc3ccc(NC(=O)c4nn(C5CCN(C)C5)cc4OCC(F)(F)F)nn3)c2cc1OC (stereo not drawn) [Compound 157]	81	≥ 80	–
COc1cc2nccc(Oc3ccc(NC(=O)c4nn(C5CC5)cc4OC(C)C)nn3)c2cc1OC [Compound 147]	85	≥ 80	–
CCn1cc(OC(C)C)c(C(=O)Nc2ccc(Oc3ccnc4cc(OC)c(OC)cc34)cn2)n1 [Compound 6]	97	≥ 80	< 100
CNCCn1cc(OCC(F)(F)F)c(C(=O)Nc2ccc(Oc3ccnc4cc(OC)c(OC)cc34)nn2)n1 [Compound 127]	38	< 50	–
COc1cc2nccc(Oc3ccc(NC(=O)c4nn(CC(C)O)cc4OCC4CCC4)nc3)c2cc1OC (stereo not drawn) [Compound 163]	93	≥ 80	–
CCCn1cc(OCCNC)c(C(=O)Nc2ccc(Oc3ccnc4cc(OC)c(OC)cc34)cn2)n1 [Compound 140]	38	< 50	–
COc1cc2nccc(Oc3ccc(NC(=O)c4nn(CC5COC5)cc4OCC(F)(F)F)nn3)c2cc1OC [Compound 123]	72	50 to 80	–
COc1cc2nccc(Oc3ccc(NC(=O)c4nn(C5CC5)cc4NCCC(F)(F)F)nc3)c2cc1OC [Compound 142]	92	≥ 80	–
COc1cc2nccc(Oc3ccc(NC(=O)c4nn(CCN)cc4OCC(F)(F)F)nn3)c2cc1OC [Compound 125]	38	< 50	–
COc1cc2nccc(Oc3ccc(NC(=O)c4nn(CC5COC5)cc4OCC(F)(F)F)cc3C)c2cc1OC [Compound 99]	94	≥ 80	–
COc1cc2nccc(Oc3ccc(NC(=O)c4nn(C5CCOC5)cc4OCC(F)(F)F)cn3)c2cc1OC (stereo not drawn) [Compound 138]	9	< 50	–
COc1cc2nccc(Oc3ccc(NC(=O)c4nn(C5CC5)cc4OCC4COC4)nc3)c2cc1OC [Compound 143]	95	≥ 80	–
CCn1cc(OCC2CCC2)c(C(=O)Nc2ccc(Oc3ccnc4cc(OC)c(OC)cc34)cn2)n1 [Compound 8]	94	≥ 80	< 100
CCCn1cc(OCC2CCOCC2)c(C(=O)Nc2ccc(Oc3ccnc4cc(OC)c(OC)cc34)cn2)n1 [Compound 164]	73	50 to 80	–
COc1cc2nccc(Oc3ccc(NC(=O)c4nn(C5CC5)cc4OCC(F)(F)F)nn3)c2cc1OC [Compound 112]	97	≥ 80	–
COc1cc2nccc(Oc3ccc(NC(=O)c4nn(C5CC5)cc4OCC4CCC4)nn3)c2cc1OC [Compound 149]	76	50 to 80	–
CNCCn1cc(OCC(F)(F)F)c(C(=O)Nc2ccc(Oc3ccnc4cc(OC)c(OC)cc34)cn2)n1 [Compound 11]	88	≥ 80	< 100
CNCCn1cc(OCC(F)(F)F)c(C(=O)Nc2ccc(Oc3ccnc4cc(OC)c(OC)cc34)cc2)n1 [Compound 119]	9	< 50	–
CCCn1cc(OCCN(C)C)c(C(=O)Nc2ccc(Oc3ccnc4cc(OC)c(OC)cc34)c(F)c2)n1 [Compound 165]	5	< 50	–

SMILES	inhibition at 0.1 µM [1] [%]	inhibition at 0.1 µM [2] [%]	Kd [nM]
COc1cc2nccc(Oc3ccc(NC(=O)c4nn(CC5COC5)cc4OCC(F)(F)F)cc3F)c2cc1OC [Compound 97]	56	50 to 80	–
COc1cc2nccc(Oc3ccc(NC(=O)c4nn(C5CCN(C)C5)cc4OCC(F)(F)F)cc3)c2cc1OC (stereo not drawn) [Compound 100]	36	< 50	–
COc1cc2nccc(Oc3ccc(NC(=O)c4nn(CC(C)C)cc4OCC(F)(F)F)cn3)c2cc1OC [Compound 103]	29	< 50	–
COc1cc2nccc(Oc3ccc(NC(=O)c4nn(C5CC5)cc4OCC4COC4)nn3)c2cc1OC [Compound 161]	14	< 50	–
COc1cc2nccc(Oc3ccc(NC(=O)c4nn(C5CCNC5)cc4OCC(F)(F)F)nn3)c2cc1OC (stereo not drawn) [Compound 122]	19	< 50	–
COc1cc2nccc(Oc3ccc(NC(=O)c4nn(CC(C)O)cc4OCCF)nc3)c2cc1OC (stereo not drawn) [Compound 152]	96	≥ 80	–
CNCCn1cc(OCC(F)(F)F)c(C(=O)Nc2ccc(Oc3ccnc4cc(OC)c(OC)cc34)cc2F)n1 [Compound 154]	47	< 50	–
CCCn1cc(OCC(F)(F)F)c(C(=O)Nc2ccc(Oc3ccnc4cc(OC)c(OC)cc34)nc2)n1 [Compound 139]	37	< 50	–
COc1cc2nccc(Oc3ccc(NC(=O)c4nn(CCOC5CC5)cc4OCC(F)(F)F)cc3F)c2cc1OC [Compound 116]	93	≥ 80	–
COc1cc2nccc(Oc3ccc(NC(=O)c4nn(C5CC5)cc4OCCF)nn3)c2cc1OC [Compound 113]	82	≥ 80	–
COc1cc2nccc(Oc3ccc(NC(=O)c4nn(C5CC5)cc4NCC(F)(F)F)nn3)c2cc1OC [Compound 148]	60	50 to 80	–
COc1cc2nccc(Oc3ccc(NC(=O)c4nn(C5CC5)cc4OCC4CCC4)nc3)c2cc1OC [Compound 111]	89	≥ 80	–
COc1cc2nccc(Oc3ccc(NC(=O)c4nn(CCOC5CC5)cc4OCC(F)(F)F)nn3)c2cc1OC [Compound 120]	95	≥ 80	–
COc1cc2nccc(Oc3ccc(NC(=O)c4nn(C5CC5)cc4OCC(F)F)nc3)c2cc1OC [Compound 109]	98	≥ 80	–
COc1cc2nccc(Oc3ccc(NC(=O)c4nn(C5CC5)cc4OC(C)C)nc3)c2cc1OC [Compound 108]	96	≥ 80	–
CNCCOc1cn(C2CC2)nc1C(=O)Nc1ccc(Oc2ccnc3cc(OC)c(OC)cc23)nn1 [Compound 160]	25	< 50	–
COc1cc2nccc(Oc3ccc(NC(=O)c4nn(CCN(C)C)cc4OCC(F)(F)F)nc3)c2cc1OC [Compound 9]	92	≥ 80	< 100
CCCn1cc(OCC(F)(F)F)c(C(=O)Nc2ccc(Oc3ccnc4cc(OC)c(OC)cc34)cn2)n1 [Compound 7]	97	≥ 80	< 100
COc1cc2nccc(Oc3ccc(NC(=O)c4nn(C5CC5)cc4OCC4CNC4)nc3)c2cc1OC [Compound 144]	73	50 to 80	–
COc1cc2nccc(Oc3ccc(NC(=O)c4nn(C5CC5)cc4NCC(F)(F)F)nc3)c2cc1OC [Compound 145]	94	≥ 80	–
